Experimental data taken from patent US20130244875A1, “METHODS AND COMPOSITIONS FOR IMPROVING PLANT HEALTH” (priority 2006, published 2013).
Where “and” joins values, the source holds several entries; their conditions need not be identical. Equal entries are not always repeated. Where two headings read alike, the source gives them in different places.

Assays:
[1] = test system: haploid seeds of corn genotype 01DKD2; assay: Haploid corn seed pretreatment before colchicine doubling; type: in vivo; conditions: seeds imbibed 24 hours before 0.0625% colchicine; for Doubling efficiency: water 5; for 10 inch pot survival: water 53; for Percent Pollination: water 81; for Percent germination: water 90
Protocol: The use of these chemicals during the doubling process is toxic and stressful to the treated plant or seed. […] To determine quantify the effect of acetyl salicylic acid (ASA) and salicylic acid (SA) on plant health of haploid plants subjected to colchicine treatments, haploid seeds of corn genotype 01DKD2 were treated with 100-500 microMolar (μM) of DCSA, ASA, or SA or combinations thereof by imbibing the seeds in a solution of the compound for 24 hours before colchicine treatment of the seeds. A solution of 0.0625% colchicine (Sigma Aldrich, St. Louis, Mo. Cat#C3915) and 1.5% DMSO (Sigma Aldrich, St. Louis, Mo. Cat#D8779) was used to treat the seeds and the seeds incubated in the solution at 25° C. for 5 days in the dark. The germination rate, survival rate of the treated plants, fertility, and doubling rate were measured.

[2] = test system: soybean plants; assay: Copper injury on soybeans; type: in vivo; conditions: 1000 ppm copper sulfate foliar spray alone; soybean V1-2; 5 days after treatment
Source text: Plants are sensitive to heavy metal toxicity. Heavy metals are present in the environment or sometimes applied to plants for pest control. Symptoms of plant injury following treatment with a heavy metal compound, for example, a compound containing copper, are necrotic leaf spotting and flecking with more severe injury resulting in larger reddish brown spots, […] necrosis and/or necrotic puckered leaves.

[3] = test system: DMOxRR2Y soybean stack; assay: 2,4-D postemergence injury on DMOxRR2Y soybean; type: in vivo; conditions: V3, 3, 30, 60, 120 and 280 g ae/ha, all rates, 20 days after treatment
Source text: A rate titration of 2,4-D (2,4-D amine, Helena Chemical Co., Memphis, Tenn.) was applied as postemergence (POST) treatment at V3 growth state of breeding stack of DMO soybean and RR2Y (RR2Y is MON89788 event, U.S. application Ser. No. 11/441,914) transgenic soybean. 2,4-D was applied as a postemergence (POST) treatment (V3) at 5 application rates on DMOxRR2Y soybean stack and compared for total crop injury across all application rates. The POST herbicide application rates used for this trial were 3 g ae/ha (acid equivalent/hectare), 30 g ae/ha, 60 g ae/ha, 120 g ae/ha and 280 g ae/ha of 2,4-D. The treated plants were rated for 2,4-D symptoms 20 days after treatment.

[4] = test system: Verticillium (isolate King); assay: Verticillium wilt protection in cotton, isolate King; type: in vivo, Verticillium dahliae; conditions: cotton ST6611, DCSA 1 lb/A, glyphosate 0.75 lb/A, 24 hours before inoculation
Source text: (§1) DCSA was unexpectedly found to provide protection to cotton plants against Verticillium dahliae, causal agent of cotton wilt disease (Table 6). Cotton plants of the variety ST6611, BOLLGARD 2, ROUNDUP READY FLEX, were inoculated with a moderate isolate (DPL) or a virulent isolate (King) of Verticillium by a seedling dipping method. Seedlings at the first true leaf stage were taken out from the pots, one inch of roots were cut off, seedlings were dipped in a spore slurry for one minute, and then transplanted back in the pots. These strains were isolated and provided by Dr. Terry Wheeler (Texas A&M University, TX USA). DCSA was applied at the rate of 1 lb/A and glyphosate (ROUNDUP WEATHERMAX, Monsanto Company, St. Louis, Mo.) at the rate of 0.75 lb/A 24 hours before inoculation. Protection against Verticillium was measured on a disease severity scale of 1-9:1 being healthy and 9 being dead because of disease, and also was measured as the number of plants that survived out of 10 inoculated plants.

[5] = test system: Verticillium (isolate DPL); assay: Verticillium wilt protection in cotton, isolate DPL; type: in vivo, Verticillium dahliae; conditions: cotton ST6611, DCSA 1 lb/A, glyphosate 0.75 lb/A, 24 hours before inoculation
Source text: as §1

[6] = test system: cotton plants; assay: Paraquat (Gramoxone) oxidative stress injury in cotton; type: in vivo; conditions: 2 DAT, DCSA (if given) 1 lb/Acre 24 hours before
Protocol: Four different cotton cultivars as indicated in Table 3 were grown in 4-inch pots for two weeks. These cotton plants were either sprayed with DCSA (BASF) at the 1 lb/A rate, or unsprayed (no DCSA application, as control). Experimental plants (treated with DCSA and untreated) were sprayed with Paraquat (Gramoxone®; Syngenta) at 30 gm/ha, 70 gm/ha, and 100 gm/ha rates, 24 hours after the application of DCSA, to simulate oxidative stress. […] The same experiment was repeated at two different growth stages of cotton (2 nodes stage and 5 nodes stage).

[7] = test system: soybean plants; conditions: for % injury: N3001 non-transgenic soybean, 4 DAT, ANOVA mean; for % injury at 5 DAT Paraquat alone control 100 g ae/ha: paraquat alone 100 g ae/ha
Protocol: For this example, the plants were grown as described in the above example. Transgenic and non transgenic soybean plants carrying the DMO gene in their genome were either treated with Paraquat (Gramoxone®; Syngenta) to create oxidative stress or with dicamba followed by Paraquat at V3 stage. The dicamba rate was 1 lb/Acre or 1120 g ae/ha. […] Plants were then evaluated for paraquat injury by visually assessing injury at a particular day after treatment (DAT) for injury on a scale of 0 to 100 percent relative to untreated control plants, with zero representing “no” injury and 100% representing “complete” injury or death. Data were collected and analyzed using suitable statistical methods.
In another experiment, the effect of externally applied DCSA was tested for its benefit in protecting soybean plants from oxidative stress injury caused by Paraquat. Different amounts of DCSA were applied 24 hrs before applying Paraquat to test any correlation between the amount of DCSA applied and the extent of protection obtained from oxidative stress measured in terms of reduction in % injury as described above. Different levels of dicamba were also applied separately to test the same hypothesis.

| Compound | Doubling efficiency ([1]; 100 μM (each)) | 10 inch pot survival ([1]; 100 μM (each)) | Percent Pollination ([1]; 100 μM (each)) [%] | Percent germination ([1]; 100 μM (each)) [%] | Doubling efficiency ([1]; 250 μM (each)) | 10 inch pot survival ([1]; 250 μM (each)) | Percent Pollination ([1]; 250 μM (each)) [%] | Percent germination ([1]; 250 μM (each)) [%] | Doubling efficiency ([1]; 500 μM (each)) | 10 inch pot survival ([1]; 500 μM (each)) | Percent Pollination ([1]; 500 μM (each)) [%] | Percent germination ([1]; 500 μM (each)) [%] | also measured |
| --- | --- | --- | --- | --- | --- | --- | --- | --- | --- | --- | --- | --- | --- |
| O=C(O)c1ccccc1O [SA, salicylic acid] | 2 | 48 | 83 | 80 | 3 | 58 | 85 | 85 | 3 | 77 | 89 | 85 |  |
| O=S(=O)([O-])[O-].[Cu+2] [Cu, copper sulfate] |  |  |  |  |  |  |  |  |  |  |  |  | Percent injury [2]: 45% and 45.0a Percent |
| CNC.O=C(O)COc1ccc(Cl)cc1Cl [2,4-D] |  |  |  |  |  |  |  |  |  |  |  |  | POST 2,4-D injury compared to treated non-transgenic control A3525 [3]: significantly (ANOVA test) lower |
| O=C(O)CNCP(=O)(O)O [Glyphosate, N-phosphonomethylglycine, reference compound] |  |  |  |  |  |  |  |  |  |  |  |  | Severity rating (1-9) ([4]; 1 healthy, 9 dead, inoculated check 9): 3.5; Plant survival rating (out of 10) ([4]; inoculated check 0): 10; Severity rating (1-9) ([5]; 1 healthy, 9 dead, inoculated check 5): 2; Plant survival rating (out of 10) ([5]; inoculated check 8): 10 |
| CC(=O)Oc1ccccc1C(=O)O [ASA, acetyl salicylic acid] | 0 | 62 | 86 | 87 | 8 | 60 | 78 | 85 | 5 | 35 | 71 | 68 |  |
| C[n+]1ccc(-c2cc[n+](C)cc2)cc1 [Paraquat] |  |  |  |  |  |  |  |  |  |  |  |  | Percentage injury ([6]; cotton ST3273B2RF, Gramoxone 30 g a.i./ha): 35%; Percentage injury ([6]; cotton ST3273B2RF, Gramoxone 70 g a.i./ha): 50%; Percentage injury ([6]; cotton ST3273B2RF, Gramoxone 100 g a.i./ha): 50%; Percentage injury ([6]; cotton ST4575BR, Gramoxone 30 g a.i./ha): 37.5%; Percentage injury ([6]; cotton ST4575BR, Gramoxone 70 g a.i./ha): 42.5%; Percentage injury ([6]; cotton ST4575BR, Gramoxone 100 g a.i./ha): 65%; Percentage injury ([6]; cotton ST4646B2RF, Gramoxone 30 g a.i./ha): 31.5%; Percentage injury ([6]; cotton ST4646B2RF, Gramoxone 70 g a.i./ha): 42.5%; Percentage injury ([6]; cotton ST4646B2RF, Gramoxone 100 g a.i./ha): 70%; Percentage injury ([6]; cotton ST6622RF, Gramoxone 30 g a.i./ha): 42.5%; Percentage injury ([6]; cotton ST6622RF, Gramoxone 70 g a.i./ha): 50%; Percentage injury ([6]; cotton ST6622RF, Gramoxone 100 g a.i./ha): 70%; % injury ([7]; paraquat 30 g ae/ha at V-3): 32.5%; % injury ([7]; paraquat 70 g ae/ha at V-3): 50.8%; % injury ([7]; paraquat 200 g ae/ha at V-3): 75%; injury rate ([7]; transgenic plants contacted with Paraquat alone (Table 2)): about 75%; % injury at 5 DAT Paraquat alone control 100 g ae/ha ([7]; transgenic soybean event 462-1-21): 75.83%; % injury at 5 DAT Paraquat alone control 100 g ae/ha ([7]; transgenic soybean event 469-13-19): 77.50% |
